Results from patent US9229013B2, “Vasoactive hormone-based stratification of patients suffering from diseases related to endothelial function/dysfunction” (B.R.A.H.M.S GMBH, priority 2009, dated 2016).
Where “and” joins values, the source holds several entries; their conditions need not be identical. Equal values may be shown once.

System: patients suffering from shortness of breath (SOB), acute coronary syndrome, acute heart failure (AHF), arrhythmia, asthma exacerbation, bronchitis, chest pain …
Set-up: species or system human
Settings: in vivo
Source text: Suitable threshold levels for the stratification of subjects into different groups (categories) have to be determined for each particular combination of vasoactive hormone or fragments thereof or precursors or fragments thereof, medication and disease. This can e.g. be done by grouping a reference population of patients according to their level of vasoactive hormone into certain quantiles, e.g. tertiles, quartiles, quintiles or even according to suitable percentiles. […] A HR around 1 (e.g. +/−0.1) indicates no elevated risk but also no benefit from medication for the particular group of patients.
Survival rates, i.e. the proportion of patients surviving at a given time after entry into the studies, are plotted in the appended figures over time for different combinations of a particular vasoactive hormone with a particular medication. The patients have been stratified into quintiles according to their respective hormone levels. […] For some cases, two or more quintiles have been pooled were appropriate. Hazard ratios (HR) have been calculated for various combinations of particular vasoactive hormones with particular medications. HR have also been calculated for particular quintiles and/or pooled quintiles and compared to overall HR for each combination.

CC(=O)CC(c1ccccc1)c1c(O)c2ccccc2oc1=O (stereo not shown) [Warfarin]
HR Medicament (overall patient group): 1.6 and 1 and 1.3 and 0.8
